Tests used:
Experiment in all cases: In vitro antibacterial evaluation: minimum inhibitory concentration (MIC), broth dilution method
Format in all cases: cell-based
Settings in all cases: broth dilution, 18 hours at 35° C.
Staphylococcus sp. = system: Staphylococcus sp.
In short: (§1)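 Using Muller-Hinton II […] and an inoculum of 5×10^5 CFU/mL, antibiotic dilutions from 64 down to 0.06 μg/mL were tested following NCCLS M7-A2. The MIC is the lowest concentration inhibiting growth, including in methicillin-, penicillin- or vancomycin-resistant clinical isolates.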

Enterococcus sp. = system: Enterococcus sp.
In short: as §1

Streptococcus sp. = system: Streptococcus sp.
In short: as §1

Escherichia coli = system: Escherichia coli
[1] = Enterococcus faecalis (ATCC 29212)
[2] = Enterococcus faecalis (GC 2242)
[3] = Enterococcus faecalis (GC 2691)
[4] = Enterococcus faecalis (GC 3059)
[5] = Enterococcus faecalis (GC 4552)
[6] = Enterococcus faecalis (GC 4553)
[7] = Enterococcus faecalis (GC 4554)
[8] = Enterococcus faecalis (GC 6189)
[9] = Streptococcus agalactiae (GC 4564)
[10] = Streptococcus pneumoniae (ATCC 6301)
[11] = Streptococcus pneumoniae (GC 1894)
[12] = Streptococcus pneumoniae (GC 4565)
[13] = Streptococcus pyogenes (GC 4563)

CC(c1ccccc1)C1NC(=O)CNC(=O)C(CO)NC(=O)C(CC2CNC(=N)N2C2OC(CO)C(O)C(O)C2O)NC(=O)C(CC2CNC(=N)N2)NC(=O)C(Cc2ccc3oc(-c4ccc5c(c4)Cc4ccccc4-5)nc3c2)NC1=O (stereo not drawn) [Example 42, Cyclo[3-[2-(9H-fluoren-2-yl)-1,3-benzoxazol-5-yl]alanyl-3-(2-iminoimidazolidin-4-yl)alanyl-3-(3-hexopyranosyl-2-iminoimidazolidin-4-yl)alanylserylglycyl-β-methylphenylalanyl]]
4 mg/L: MIC Coagulase Negative Staphylococcus (GC 4551) (Staphylococcus sp.) | MIC Enterococcus avium (GC 4558) (Enterococcus sp.; Enterococcus avium (GC 4558)) | MIC Enterococcus faecium (GC 2243) (Enterococcus sp.; Enterococcus faecium (GC 2243)) | MIC Enterococcus avium (GC 4558) (Enterococcus sp.) | MIC Enterococcus faecium (GC 2243) (Enterococcus sp.) | MIC Streptococcus pyogenes (GC 4563) (Streptococcus sp.; [13]) | MIC Streptococcus pyogenes (GC 4563) (Streptococcus sp.)
32 mg/L: MIC Escherichia coli (ATCC 25922) (Escherichia coli) | MIC Escherichia coli (GC 4559) (Escherichia coli)
8 mg/L: MIC Enterococcus faecalis (ATCC 29212) (Enterococcus sp.; [1]) | MIC Enterococcus faecalis (GC 2242) (Enterococcus sp.; [2]) | MIC Enterococcus faecalis (GC 2691) (Enterococcus sp.; [3]) | MIC Enterococcus faecalis (GC 4552) (Enterococcus sp.; [5]) | MIC Enterococcus faecalis (GC 4553) (Enterococcus sp.; [6]) | MIC Enterococcus faecalis (GC 4554) (Enterococcus sp.; [7]) | MIC Enterococcus faecalis (GC 6189) (Enterococcus sp.; [8]) | MIC Enterococcus faecalis (ATCC 29212) (Enterococcus sp.) | MIC Enterococcus faecalis (GC 2242) (Enterococcus sp.) | MIC Enterococcus faecalis (GC 2691) (Enterococcus sp.) | MIC Enterococcus faecalis (GC 4552) (Enterococcus sp.) | MIC Enterococcus faecalis (GC 4553) (Enterococcus sp.) | MIC Enterococcus faecalis (GC 4554) (Enterococcus sp.) | MIC Enterococcus faecalis (GC 6189) (Enterococcus sp.) | MIC Streptococcus agalactiae (GC 4564) (Streptococcus sp.; [9]) | MIC Streptococcus pneumoniae (ATCC 6301) (Streptococcus sp.; [10]) | MIC Streptococcus agalactiae (GC 4564) (Streptococcus sp.) | MIC Streptococcus pneumoniae (ATCC 6301) (Streptococcus sp.)
2 mg/L: MIC Coagulase Negative Staphylococcus (GC 4547) (Staphylococcus sp.) | MIC Staphylococcus aureus SMITH (GC 4543) (Staphylococcus sp.) | MIC Staphylococcus haemolyticus (GC 4546) (Staphylococcus sp.) | MIC Staphylococcus aureus-SMITH (GC 4543) (Staphylococcus sp.; strain SMITH GC 4543) | MIC Enterococcus faecium (GC 4557) (Enterococcus sp.; Enterococcus faecium (GC 4557)) | MIC Enterococcus faecium (GC 4557) (Enterococcus sp.)
1 mg/L: MIC Coagulase Negative Staphylococcus (GC 4548) (Staphylococcus sp.) | MIC Coagulase Negative Staphylococcus (GC 4549) (Staphylococcus sp.) | MIC Coagulase Negative Staphylococcus (GC 6257) (Staphylococcus sp.) | MIC Escherichia coli (GC 4560) (Escherichia coli)
16 mg/L: MIC Enterococcus faecalis (GC 3059) (Enterococcus sp.; [4]) | MIC Enterococcus faecium (GC 4556) (Enterococcus sp.; Enterococcus faecium (GC 4556)) | MIC Enterococcus faecalis (GC 3059) (Enterococcus sp.) | MIC Enterococcus faecium (GC 4556) (Enterococcus sp.) | MIC Streptococcus pneumoniae (GC 1894) (Streptococcus sp.; [11]) | MIC Streptococcus pneumoniae (GC 4565) (Streptococcus sp.; [12]) | MIC Streptococcus pneumoniae (GC 1894) (Streptococcus sp.) | MIC Streptococcus pneumoniae (GC 4565) (Streptococcus sp.)

CC(c1ccccc1)C1NC(=O)CNC(=O)C(CO)NC(=O)C(C(O)C2CNC(=N)N2C2OC(CO)C(O)C(O)C2O)NC(=O)C(C(O)C2CNC(=N)N2)NC(=O)C(Cc2ccc3oc(-c4cccc(F)c4)nc3c2)NC1=O (stereo not drawn) [Example 30, Cyclo[3-[2-(3-fluorophenyl)-1,3-benzoxazol-5-yl]alanyl-3-(2-iminoimidazolidin-4-yl)seryl-3-(3-hexopyranosyl-2-iminoimidazolidin-4-yl)serylserylglycyl-β-methylphenylalanyl]]
64 mg/L: MIC Enterococcus faecalis (ATCC 29212) (Enterococcus sp.; [1]) | MIC Enterococcus faecalis (GC 3059) (Enterococcus sp.; [4]) | MIC Enterococcus faecalis (GC 4552) (Enterococcus sp.; [5]) | MIC Enterococcus faecalis (GC 4554) (Enterococcus sp.; [7]) | MIC Enterococcus faecium (GC 4556) (Enterococcus sp.; Enterococcus faecium (GC 4556)) | MIC Enterococcus faecalis (ATCC 29212) (Enterococcus sp.) | MIC Enterococcus faecalis (GC 3059) (Enterococcus sp.) | MIC Enterococcus faecalis (GC 4552) (Enterococcus sp.) | MIC Enterococcus faecalis (GC 4554) (Enterococcus sp.) | MIC Enterococcus faecium (GC 4556) (Enterococcus sp.)
8 mg/L: MIC Staphylococcus aureus-SMITH (GC 4543) (Staphylococcus sp.; strain GC 4543) | MIC Coagulase Negative Staphylococcus (GC 4547) (Staphylococcus sp.; strain GC 4547) | MIC Coagulase Negative Staphylococcus (GC 4551) (Staphylococcus sp.; strain GC 4551) | MIC Staphylococcus aureus-SMITH (GC 4543) (Staphylococcus sp.; strain SMITH GC 4543) | MIC Enterococcus faecium (GC 4557) (Enterococcus sp.; Enterococcus faecium (GC 4557)) | MIC Enterococcus faecium (GC 4557) (Enterococcus sp.) | MIC Streptococcus agalactiae (GC 4564) (Streptococcus sp.; [9]) | MIC Streptococcus pneumoniae (ATCC 6301) (Streptococcus sp.; [10]) | MIC Streptococcus agalactiae (GC 4564) (Streptococcus sp.) | MIC Streptococcus pneumoniae (ATCC 6301) (Streptococcus sp.) | MIC Escherichia coli (GC 4560) (Escherichia coli)
4 mg/L: MIC Staphylococcus haemolyticus (GC 4546) (Staphylococcus sp.; strain GC 4546) | MIC Coagulase Negative Staphylococcus (GC 4548) (Staphylococcus sp.; strain GC 4548) | MIC Coagulase Negative Staphylococcus (GC 6257) (Staphylococcus sp.; strain GC 6257) | MIC Streptococcus pyogenes (GC 4563) (Streptococcus sp.; [13]) | MIC Streptococcus pyogenes (GC 4563) (Streptococcus sp.)
16 mg/L: MIC Coagulase Negative Staphylococcus (GC 4549) (Staphylococcus sp.; strain GC 4549) | MIC Enterococcus avium (GC 4558) (Enterococcus sp.; Enterococcus avium (GC 4558)) | MIC Enterococcus faecalis (GC 4553) (Enterococcus sp.; [6]) | MIC Enterococcus avium (GC 4558) (Enterococcus sp.) | MIC Enterococcus faecalis (GC 4553) (Enterococcus sp.) | MIC Streptococcus pneumoniae (GC 1894) (Streptococcus sp.; [11]) | MIC Streptococcus pneumoniae (GC 4565) (Streptococcus sp.; [12]) | MIC Streptococcus pneumoniae (GC 1894) (Streptococcus sp.) | MIC Streptococcus pneumoniae (GC 4565) (Streptococcus sp.)
32 mg/L: MIC Enterococcus faecalis (GC 2242) (Enterococcus sp.; [2]) | MIC Enterococcus faecalis (GC 2691) (Enterococcus sp.; [3]) | MIC Enterococcus faecalis (GC 6189) (Enterococcus sp.; [8]) | MIC Enterococcus faecium (GC 2243) (Enterococcus sp.; Enterococcus faecium (GC 2243)) | MIC Enterococcus faecalis (GC 2242) (Enterococcus sp.) | MIC Enterococcus faecalis (GC 2691) (Enterococcus sp.) | MIC Enterococcus faecalis (GC 6189) (Enterococcus sp.) | MIC Enterococcus faecium (GC 2243) (Enterococcus sp.) | MIC Escherichia coli (ATCC 25922) (Escherichia coli) | MIC Escherichia coli (GC 4559) (Escherichia coli)

Reference: US8247211B2, “Glycopeptide antibiotics” (American Cyanamid Company, priority 2001, dated 2012)
